Test [1] in a line: Effective concentration of the compound against viral replication by Reverse transcriptase.
A short description of test [2]: Inhibitory activity against viral attachment.

A value given as a limit tells only on which side of the number the result lay.

Here are results for three molecules from BindingDB's records for doi:10.1021/jm0201417 (University of Southern California, 2002).

The molecule `O=C(NNC(=O)c1ccccc1SSc1ccccc1C(=O)NNC(=O)c1ccccc1S)c1ccccc1S` [Compound 3] registered an EC50 in test [1] of 17.8 µM. In test [2], this molecule had an IC50 greater than 100 µM.

For `O=C(NNC(=O)c1ccccc1S)c1ccccc1S` [2-Mercapto-benzoic acid N'-(2-mercapto-benzoyl)-hydrazide], it took 4.3 µM to reach a half-maximal effect in test [1] (EC50). Moreover, the IC50 in test [2] was greater than 100 µM.

`O=C1NNC(=O)c2ccccc2SSc2ccccc2C(=O)NNC(=O)c2ccccc2SSc2ccccc21` [11,12,13,14,25,26,27,28-octahydrotetrabenzo[c,i,m,s][1,2,11,12,6,7,16,17]tetrathiatetraazacycloicosine-11,14,25,28-tetraone] showed a half-maximal effective concentration (EC50) in test [1] of 6 µM.
